Legend:
μ opioid receptor = target: T1, μ opioid receptor (Homo sapiens, UniProt P35372); assay: FLIPR Ca2+ assay, agonist of μ opioid receptor in stably transfected HEK293T cells; type: cell-based; settings: for agonist effect on μ opioid receptor: intracellular Ca2+, vs DMSO blank
T1 construct: expressed in transfected cells; host or cells: HEK293T (stably transfected)
Method: (§1) Experimental scheme: the cells used to express μ opioid receptors in this research are stably transfected human embryonic kidney 293T cells (HEK293T); the dopamine receptor applied is transiently transfected HEK293T. In this scheme, part of the berberine derivatives obtained in the present invention were added to the cells that have expressed with corresponding receptors, and FLIPR (Fluorometric Imaging Plate Reader; Molecular Devices Corp) was applied to screen and identify their functions. Specifically: inoculate cells to a 96-well cell culture plate coated with poly-D-lysme based on 80,000 per well, after 24 hours, remove the medium, add 100 μl fluorescent dye solution (2 μM Fluo-4 AM dissolves first in pluronic acid and then in the buffer composed of haploid Hank's buffer and 20 mM HEPES, with pH 7.4) to each well and keep it at 37° C. for 1 hour, then wash the cells with the buffer three times. Dissolve the compounds to be tested with DMSO and put them in a 96-well plate, apply FLIPR to automatically add samples to the cell culture plate and incubate for 3 min (for the tests of agonist of μ-opioid receptor) or 10 min (for the tests of antagonist of dopamine receptor). Then perform fluorescence detection under the wavelength of 520 nm and 488 nm, thus monitoring the concentration of Ca^2+ in the cells.
(§2) The experimental scheme is the same as that in example 1, except that when adding, dilute the compounds to be tested with buffer to different concentrations, so as to detect responses under different doses. This method has been used to test DHCB effect on μ-opioid receptors and 5 dopamine receptors, with the results as shown in FIG. 3 and Table 1. […] In addition, μ-opioid receptor's weak synergism can further enhance the analgesic effect of DHCB.

dopamine D2 receptor = target: T2, dopamine D2 receptor (Homo sapiens, UniProt P14416); assay: FLIPR Ca2+ assay, antagonist of dopamine D2 receptor in transiently transfected HEK293T cells; type: cell-based; settings: for antagonist effect on dopamine D2 receptor: intracellular Ca2+, vs DMSO blank
T2 construct: expressed in transfected cells; host or cells: HEK293T (transiently transfected)
Method: as §1, §2

CD-1 mice [1] = assay: Thermal radiation tail-flick experiment I in mice (analgesic effect); type: in vivo; settings: for Tail-flick threshold: injected into abdominal cavity, 30 min after dosing, cut-off 22 sec
Method: Thermal Radiation Tail-flick Experiment I in Mice (Tail-flick assay): to Evaluate the Analgesic Effect In Vivo of the Compounds of the Present Invention.
(§3) Select CD-1 mice (with the original weight being 30-40 g) and divide them into 6 groups (solvent group, morphine group, 1-THP group and DHCB groups with different doses: 5, 10, and 40 mg/kg), each including 9-11 mice. Place mice tails on the thermal radiation tail-flick apparatus and direct the light beam at ⅓ of the mice tails. First determine the basic pain thresholds of each group of mice, then inject the test samples into the abdominal cavities of the mice respectively, and after 30 min, re-determine the mice's pain thresholds. The irradiation time was no more than 22 sec. See Table 2 for the determination results.

mice = assay: Drug resistance experiment (mice tail-flick under thermal radiation, 7 days); type: in vivo; settings: successive 7 days, DHCB 10 mg/kg into abdominal cavity, thresholds every other day
Method: Drug resistance is a defect existing in many commonly used analgesics, which constitutes great limitations on their use. This experiment studies the drug resistance of DHCB through mice tail-flick under thermal radiation. During the experiment, DHCB (10 mg/kg) had been injected into the abdominal cavity of the mice for successive 7 days and the mice's pain thresholds had been detected every other day.

CD-1 mice [2] = assay: Thermal radiation tail-flick experiment II in mice (duration time of analgesic effect); type: in vivo; settings: pain thresholds within 6 hours; DHCB 20 and 40 mg/kg
Method: Thermal Radiation Tail-flick Experiment II in Mice (Tail-flick Assay): to Evaluate the Duration Time of the Analgesic Effect In Vivo of the Compounds of the Present Invention.
as §3, with “group,” for “group, 1-THP group”, “doses:” for “doses: 5,”, “10, 20” for “10,”, “determine” for “after 30 min, re-determine”, “thresholds within 6 hours according to time points.” for “thresholds.”, “sec.” for “sec. See Table 2 for the determination results.”

Dopamine D1 = target: T3, Dopamine D1 (Homo sapiens, UniProt P21728); assay: FLIPR Ca2+ assay, antagonist of dopamine D1 receptor in transiently transfected HEK293T cells; type: cell-based
T3 construct: expressed in transfected cells; host or cells: HEK293T (transiently transfected)
Method: as §1, with “cells. […]” for “cells.”

Dopamine D4 = target: T4, Dopamine D4 (Homo sapiens, UniProt P21917); assay: FLIPR Ca2+ assay, antagonist of dopamine D4 receptor in transiently transfected HEK293T cells; type: cell-based
T4 construct: expressed in transfected cells; host or cells: HEK293T (transiently transfected)
T4 sequence (P21917 1-419): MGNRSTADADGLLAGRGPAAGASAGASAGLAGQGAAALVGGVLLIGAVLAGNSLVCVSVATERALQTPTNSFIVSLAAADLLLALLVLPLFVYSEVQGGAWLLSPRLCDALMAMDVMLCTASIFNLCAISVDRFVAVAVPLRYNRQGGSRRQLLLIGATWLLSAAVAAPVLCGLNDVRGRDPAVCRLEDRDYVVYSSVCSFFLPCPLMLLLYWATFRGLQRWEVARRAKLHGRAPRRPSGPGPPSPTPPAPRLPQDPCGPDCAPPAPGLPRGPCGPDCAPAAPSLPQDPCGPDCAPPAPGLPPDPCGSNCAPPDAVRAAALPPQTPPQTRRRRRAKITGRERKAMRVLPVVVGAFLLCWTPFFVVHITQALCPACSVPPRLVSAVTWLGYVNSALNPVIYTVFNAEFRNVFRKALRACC
Method: as §1, with “cells. […]” for “cells.”

CD-1 mice [3] = assay: Formalin pain experiment in mice; type: in vivo; settings: 5% formalin 15 min after drug
Method: Activity Example 5: to Evaluate the Analgesic Effect In Vivo of the Compounds of the Present Invention Through Formalin Pain Experiment in Mice.
Select CD-1 mice (with the original weight being 30-40 g) and divide them into 4 groups (solvent group, morphine group, and DHCB groups with different doses: 5 and 10 mg/kg), each including 9-11 mice. Place hind paws of the mice that are marked with formalin injection into the cages for 15-30 min. Inject drugs of corresponding doses into each mouse, and after 15 min, infuse 5% formalin solution subcutaneously into the underside of marked paw feet. The mice soon began to lick or bite their injected feet. Keep observation for 50 min, and record mice feet-licking time within phase I (0-5 min) and phase II (10-50 min).

Dopamine D5 = target: T5, Dopamine D5 (Homo sapiens, UniProt P21918); assay: FLIPR Ca2+ assay, antagonist of dopamine D5 receptor in transiently transfected HEK293T cells; type: cell-based
T5 construct: expressed in transfected cells; host or cells: HEK293T (transiently transfected)
Method: as §1, with “cells. […]” for “cells.”

Dopamine D3 = target: T6, Dopamine D3 (Homo sapiens, UniProt P35462); assay: FLIPR Ca2+ assay, antagonist of dopamine D3 receptor in transiently transfected HEK293T cells; type: cell-based
T6 construct: expressed in transfected cells; host or cells: HEK293T (transiently transfected)
Method: as §1, with “cells. […]” for “cells.”

T2 sequence (P14416 whole entry, species assumed): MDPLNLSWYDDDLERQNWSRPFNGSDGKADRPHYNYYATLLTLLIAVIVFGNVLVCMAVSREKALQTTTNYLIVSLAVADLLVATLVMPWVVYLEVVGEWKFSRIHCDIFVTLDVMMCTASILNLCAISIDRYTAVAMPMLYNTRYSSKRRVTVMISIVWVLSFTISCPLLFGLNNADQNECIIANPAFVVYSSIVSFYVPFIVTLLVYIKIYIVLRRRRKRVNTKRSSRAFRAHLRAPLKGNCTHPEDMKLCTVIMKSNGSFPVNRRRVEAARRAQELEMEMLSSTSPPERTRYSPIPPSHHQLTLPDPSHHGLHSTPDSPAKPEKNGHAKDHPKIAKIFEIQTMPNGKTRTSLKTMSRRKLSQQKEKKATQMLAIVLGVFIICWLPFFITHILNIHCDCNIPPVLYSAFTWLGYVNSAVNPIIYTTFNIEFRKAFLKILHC
T1 sequence (P35372 whole entry, species assumed): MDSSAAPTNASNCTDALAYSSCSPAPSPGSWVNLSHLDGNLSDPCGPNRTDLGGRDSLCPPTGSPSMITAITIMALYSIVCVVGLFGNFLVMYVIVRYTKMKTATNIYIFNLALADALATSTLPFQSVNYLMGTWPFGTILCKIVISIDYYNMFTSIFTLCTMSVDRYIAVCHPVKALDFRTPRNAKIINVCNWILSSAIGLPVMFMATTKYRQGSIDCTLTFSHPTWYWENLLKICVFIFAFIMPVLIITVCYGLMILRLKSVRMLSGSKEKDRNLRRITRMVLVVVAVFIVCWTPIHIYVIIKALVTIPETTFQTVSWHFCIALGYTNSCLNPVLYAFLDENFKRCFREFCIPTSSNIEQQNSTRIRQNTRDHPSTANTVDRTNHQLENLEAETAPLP
T6 sequence (P35462 whole entry): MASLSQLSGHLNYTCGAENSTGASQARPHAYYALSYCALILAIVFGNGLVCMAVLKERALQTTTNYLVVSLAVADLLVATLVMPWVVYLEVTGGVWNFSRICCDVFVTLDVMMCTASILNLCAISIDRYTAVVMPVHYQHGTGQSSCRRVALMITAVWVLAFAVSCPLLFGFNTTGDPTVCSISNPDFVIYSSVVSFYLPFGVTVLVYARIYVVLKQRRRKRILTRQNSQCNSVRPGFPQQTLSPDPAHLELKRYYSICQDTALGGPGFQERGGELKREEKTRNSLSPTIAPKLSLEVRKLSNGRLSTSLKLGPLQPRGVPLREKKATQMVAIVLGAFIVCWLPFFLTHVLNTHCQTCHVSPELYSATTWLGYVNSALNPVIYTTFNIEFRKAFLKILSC
T3 sequence (P21728 whole entry): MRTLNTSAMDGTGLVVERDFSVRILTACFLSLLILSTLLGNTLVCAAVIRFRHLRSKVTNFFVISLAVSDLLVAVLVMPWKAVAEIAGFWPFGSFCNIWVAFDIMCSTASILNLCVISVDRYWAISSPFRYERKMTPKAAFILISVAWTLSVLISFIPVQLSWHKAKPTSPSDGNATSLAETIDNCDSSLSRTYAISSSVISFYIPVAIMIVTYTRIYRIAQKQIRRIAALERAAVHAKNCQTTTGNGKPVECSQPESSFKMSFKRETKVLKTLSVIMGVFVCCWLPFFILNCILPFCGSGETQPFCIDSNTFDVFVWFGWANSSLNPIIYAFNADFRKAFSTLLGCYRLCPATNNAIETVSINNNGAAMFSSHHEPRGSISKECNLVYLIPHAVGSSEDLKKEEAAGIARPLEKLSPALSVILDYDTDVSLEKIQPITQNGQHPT
T5 sequence (P21918 whole entry): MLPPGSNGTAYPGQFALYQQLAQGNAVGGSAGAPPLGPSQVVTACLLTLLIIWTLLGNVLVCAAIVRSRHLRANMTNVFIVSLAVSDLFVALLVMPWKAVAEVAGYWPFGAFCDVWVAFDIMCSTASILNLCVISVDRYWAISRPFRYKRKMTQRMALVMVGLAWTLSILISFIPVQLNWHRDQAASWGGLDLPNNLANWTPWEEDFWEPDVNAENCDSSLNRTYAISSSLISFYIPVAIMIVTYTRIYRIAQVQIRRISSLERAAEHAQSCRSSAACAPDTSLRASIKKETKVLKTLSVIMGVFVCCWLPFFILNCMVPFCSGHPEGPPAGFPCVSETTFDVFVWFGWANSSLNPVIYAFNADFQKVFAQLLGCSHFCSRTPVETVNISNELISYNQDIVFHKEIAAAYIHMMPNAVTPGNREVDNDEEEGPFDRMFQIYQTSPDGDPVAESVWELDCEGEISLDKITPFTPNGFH

COc1cc2c(cc1O)CC[n+]1cc3c(O)c(OC)ccc3c(C)c1-2 [Compound 16]
agonist effect on μ opioid receptor (μ opioid receptor): a certain agonist
antagonist effect on dopamine D2 receptor (dopamine D2 receptor; FLIPR, HEK293T): good antagonist

COc1cc2c(cc1OC)[C@@H]1Cc3ccc(OC)c(OC)c3CN1CC2 [Compound 1-THP, L-tetrahydropalmatine, reference compound]
Tail-flick threshold (CD-1 mice [1]; 10 mg/kg): 10 s

CN1CC[C@]23c4c5ccc(O)c4O[C@H]2[C@@H](O)C=C[C@H]3[C@H]1C5 [morphine, reference compound]
analgesic effect on repeated dosing (drug resistance) (mice): began to reduce obviously from the third day
duration of analgesic effect in tail-flick (CD-1 mice [2]): weakens quickly two hours later
Tail-flick threshold (CD-1 mice [1]; 10 mg/kg): 20 s

COc1cc2c(cc1O)CC[n+]1cc3c(OC)c(OC)ccc3c(C)c1-2 [Compound 12, dehydrocorybulbine]
effect on dopamine D1 receptor (Dopamine D1; dose-effect): antagonist
IC50 (Dopamine D1; dose-effect curve, HEK293T): 2.16 µM
analgesic effect on repeated dosing (drug resistance) (mice): unchanged analgesic effect
EC50 (μ opioid receptor; dose-effect curve): 100 µM
agonist effect on μ opioid receptor (μ opioid receptor): a certain agonist
agonist effect on μ opioid receptor (μ opioid receptor; listed as DHCB): weak agonist
effect on dopamine D4 receptor (Dopamine D4; dose-effect): antagonist
IC50 (Dopamine D4; dose-effect curve, HEK293T): 8.4 µM
analgesic effect within phase I (0-5 min), feet-licking time (CD-1 mice [3]; 5 mg/kg and 10 mg/kg): substantial analgesic effect
analgesic effect within phase II (10-50 min), feet-licking time (CD-1 mice [3]; 10 mg/kg): significant analgesic effect
duration of analgesic effect in tail-flick (CD-1 mice [2]): does not exhibit conspicuous attenuation until four hours have passed
antagonist activity on D2 compared with THP (dopamine D2 receptor; FLIPR screen, THP positive control): equivalent to that of THP
antagonist effect on dopamine D2 receptor (dopamine D2 receptor; FLIPR, HEK293T): good antagonist
antagonist effect on dopamine D2 receptor (dopamine D2 receptor; FLIPR, HEK293T, listed as DHCB): antagonist
IC50 (dopamine D2 receptor; dose-effect curve, FLIPR, HEK293T): 0.52 µM
Tail-flick threshold (CD-1 mice [1]; 5 mg/kg): 9 s
Tail-flick threshold (CD-1 mice [1]; 10 mg/kg): 12 s
Tail-flick threshold (CD-1 mice [1]; 40 mg/kg): 17 s
analgesic effect in tail-flick (CD-1 mice [1]; doses of 5, 10, and 40 mg/kg): significant dose-dependent analgesic effect
analgesic effect on heat stimulation compared with morphine (CD-1 mice [1]; high dose 40 mg/kg): close to that of small-dose morphine
analgesic effect in tail-flick compared with controls (CD-1 mice [1]; low dose 10 mg/kg): superior to that of THP
effect on dopamine D5 receptor (Dopamine D5; dose-effect): antagonist
IC50 (Dopamine D5; dose-effect curve, HEK293T): 0.73 µM
effect on dopamine D3 receptor (Dopamine D3; dose-effect): antagonist
IC50 (Dopamine D3; dose-effect curve, HEK293T): 2.4 µM

COc1cc2c(cc1O)-c1c(C)c3ccc(OC)c(O)c3c[n+]1CC2 [Compound 14]
antagonist effect on dopamine D2 receptor (dopamine D2 receptor; FLIPR, HEK293T): good antagonist

COc1cc2c(cc1O)-c1c(C)c3ccc(OC)c(OC)c3c[n+]1CC2 [Compound 10]
antagonist effect on dopamine D2 receptor (dopamine D2 receptor; FLIPR, HEK293T): good antagonist

From patent US9610281B2 (priority 2012, dated 2017)
